Laboratory results reported in patent US20250075337A1, “SATURATED QUATERNARY AMMONIUM COMPOUNDS, GLUTARALDEHYDE, AND TETRAKIS(HYDROXYMETHYL)PHOSPHONIUM SULFATE FOR CORROSION INHIBITION, CLEANING, AND BIOCIDAL EFFICACY IN HYDROGEN SYSTEMS” (ChampionX LLC, priority 2023, published 2025).

Experiment: Bubble cell test, corrosion rate by linear polarization resistance (LPR)
Settings: 80° C., CO2 saturated 3% NaCl brine; 100 ppm active; about 15 hours after CI injection; versus uninhibited carbon steel electrode
Protocol: Examples were conducted to assess the corrosion inhibition of a saturated alkyl diquaternary compounds of structure (IIIa) as described above using a bubble cell test to assess corrosion performance using linear polarization resistance testing. The corrosion inhibitor (CI) was evaluated without combination of any other chemistries or formulation components.
The corrosion rate was measured by Linear Polarization Resistance (LPR) techniques. The working electrode used was carbon steel (C1018 grade). The counter and reference electrodes were both 1018 carbon steel. The electrodes were all cleaned and polished prior to testing.
The test conditions included: 80° C., CO2 saturated fluids with 3% NaCl brine (100% brine) with continuous CO2 sparge, atmospheric pressure. A pre-corrosion time (i.e. with no corrosion inhibitor) was carried out for about 3 hours before 500 ppm of a 20% active chemistry in solvent blend was added. This is equivalent to 100 ppm of the active chemistry being introduced into the test cell. The inhibited corrosion rate at about 15 hours after CI chemical injection was noted and a percentage inhibition determined by comparing with the corrosion rate of a carbon steel electrode under otherwise the same conditions in the absence of chemical corrosion inhibitor after the same time of exposure to the corrosive environment.

Compound: CCCCCCCCCCCCCCCCCC[N+](C)(C)CC(O)C[N+](CCO)(CCO)CCO (stereo not shown) [CI Structure IIIa]
- % Protection: >99%
